Patent EP1310258A1, “Enantiomers of steroids for the enhancement of memory and cognitive function” (Baulieu, Etienne-Emile, priority 2001, dated 2003)
Structures can show the parent of a compound that is named as a salt.

Tests used:
NMDA receptor [1] = experiment: Coadministration of steroids with the NMDA receptor antagonist AP5, Y-maze recognition performance, mice; type: in vivo; settings: for memory performances when coadministered with AP5 compared to the group treated with the steroid alone: AP5 2 nmol ICV together with PREGS 5.0 nmol or ent-PREGS 5.0 nmol (so in the source); for recognition performances of steroid alone compared with vehicle-controls: ICV effective doses alone (PREGS 5.0 nmol, ent-PREGS 5.0 nmol as printed), P < 0.05
Protocol: (§1) The two-trial memory task based on spontaneous exploration of novelty was adapted from the ones described by Dellu et al. (1992, Brain Res., 588, 132-9) in rats and by Ladurelle et al. (2000, Brain Res., 858, 371-9) in mice.
(§2) Experiments were performed in a gray polyvinychloride Y-maze. The size of each arm was 40 cm long, 15 cm wide and 35 cm high for rats, and 30 cm long, 10 cm wide and 17 cm high for mice. The floor of the maze was covered with odor-saturated sawdust which was mixed after each trial. The maze was placed in a sound-attenuated room under dim illumination. Numerous visual cues were placed on the walls of the testing room and kept constant during the entire behavioral testing..
(§3) The test consisted of two trials, separated by a 6-h intertrial interval. During the first trial (acquisition phase), one arm of the Y-maze (subsequently called novel arm) was closed with a guillotine door, thus allowing the animal to explore only the other two arms, during 5 min and 3 min for rats and mice, respectively. During the second trial (retention phase), the animals had access to the three arms for 5 min. The time spent in each arm of the maze was recorded manually every minute. Recognition was assumed to have occurred when the animal spent more time in the novel arm compared with the familiar ones. The total number of arm visits provided a measure of general motor activity.
(§4) A between-subjects design was used where each observation was made for a separate animal. Data were reported as the amount of time spent in the novel arm relative to the total duration of visits in the three arms (novel/total x 100) during the first 3 min.
(§5) They were expressed as mean ± SEM and analyzed by using one-way ANOVA followed by Newmann-Keuls posthoc test. Significance was defined as P<0.05 or P<0.01.
(§6) The effects of the ICV injection of AP5, at ICV doses of 2 and 10 nmol in mice and rats, respectively, was studied on the memory-enhancing effects of PREGS (0.5 nmol in rats and 5.0 nmol in mice) and ent-PREGS (0.05 nmol in rats and 5.0 nmol in mice).

NMDA receptor [2] = experiment: Coadministration of steroids with the NMDA receptor antagonist AP5, Y-maze recognition performance, rats; type: in vivo; settings: for memory performances when coadministered with AP5 compared to the group treated with the steroid alone: AP5 10 nmol ICV together with PREGS 0.5 nmol or ent-PREGS 0.05 nmol; for recognition performances of steroid alone compared with vehicle-controls: ICV effective doses alone (PREGS 0.5 nmol, ent-PREGS 0.05 nmol), P < 0.05
Protocol: as §1, §2, §3, §4, §5, §6

steroid sulfatase [3] = biological target: T1, steroid sulfatase (Rattus norvegicus, UniProt P15589); experiment: In vitro metabolism: steroid sulfatase activity by rat brain microsomes; type: in vitro ADME; parameters: 200 µg microsomal proteins prepared from rat brain or liver; from tissue; host or cells: rat liver microsomes; settings: 8 µg steroid with 200 µg rat brain microsomal proteins, 37°C, 1 hour
T1 sequence (P15589 20-577): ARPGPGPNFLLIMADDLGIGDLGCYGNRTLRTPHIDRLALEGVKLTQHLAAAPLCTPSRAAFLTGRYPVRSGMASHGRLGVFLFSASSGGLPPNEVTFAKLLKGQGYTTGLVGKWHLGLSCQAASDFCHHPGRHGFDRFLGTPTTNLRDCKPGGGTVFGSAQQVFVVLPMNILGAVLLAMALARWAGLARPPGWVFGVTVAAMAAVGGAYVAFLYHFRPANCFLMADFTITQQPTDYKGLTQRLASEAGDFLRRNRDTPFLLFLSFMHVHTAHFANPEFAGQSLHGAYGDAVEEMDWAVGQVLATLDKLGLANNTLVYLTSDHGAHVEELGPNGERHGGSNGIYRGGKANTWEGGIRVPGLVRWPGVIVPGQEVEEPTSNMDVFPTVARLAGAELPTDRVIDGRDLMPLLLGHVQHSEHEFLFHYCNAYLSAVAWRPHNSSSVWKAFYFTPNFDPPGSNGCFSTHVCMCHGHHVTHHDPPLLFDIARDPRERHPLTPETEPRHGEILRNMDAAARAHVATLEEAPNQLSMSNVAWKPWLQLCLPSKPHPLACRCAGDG
Protocol: (§7) The metabolism of PREGS and ent-PREGS was examined after incubation of 8 µg of each steroid with 200 µg microsomal proteins prepared from rat brain or liver, at 37°C for lhour, and the unconjugated PREG was quantified in the brain by gas-chromatography-mass spectrometry (Liere et al., 2000, J. Chromatogr. B Biomed. Sci. Appl. 2000,739:301-12)
(§8) The metabolism of DHEAS and ent-DHEAS was examined after incubation of 8 µg of each steroid with 200 µg microsomal proteins prepared from rat brain or liver, at 37°C for 1hour, and the unconjugated DHEA was quantified in the brain by gas-chromatography-mass spectrometry (Liere et al., 2000, J. Chromatogr. B Biomed. Sci. Appl. 2000,739:301-12)

steroid sulfatase [4] = biological target: T1, steroid sulfatase; experiment: In vitro metabolism: steroid sulfatase activity by rat liver microsomes; type: in vitro ADME; parameters: 200 µg microsomal proteins prepared from rat brain or liver; from tissue; host or cells: rat liver microsomes; settings: 37°C, 1 hour; for formation of DHEA (metabolism by sulfatase) / formation of PREG (metabolism by sulfatase): 8 µg steroid with 200 µg rat liver microsomal proteins
Protocol: as §7, §8

steroid sulfatase [5] = biological target: T1, steroid sulfatase; experiment: In vivo metabolism in rat brain: steroid sulfatase activity (GC-MS of unconjugated PREG); settings: 5 min after ICV administration of 1µg
Protocol: The metabolism of PREGS and ent-PREGS was investigated 5 min after ICV administration of 1µg of each compound in rat and the unconjugated PREG was quantified in the brain by gas-chromatography-mass spectrometry (Liere et al., 2000, J. Chromatogr. B Biomed Sci. Appl. 2000,739:301-12).

Swiss mice = experiment: Two-trial memory task (spatial recognition) in a Y-maze after ICV administration, mice; type: in vivo; settings: ICV immediately after acquisition, 6-h intertrial interval, Newman-Keuls (PREGS P<0.05; ent-PREGS P<0.01)
Protocol: (§9) Male Sprague-Dawley rats and Swiss mice (Janvier, Le Genest St-Isle, France) 2 months of age and weighing 250-300g for rats and 30-32g for mice at the time of surgery were used. They were grouped-housed in a temperature (22°C ± 1°C) and humidity (50% ± 5%) controlled room. They were maintained on a 12-h light/12-h dark (08.00-20.00) schedule and had access to food and water ad libitum.
(§10) Rats were anaesthesized with a mixture of 5% ketamine (Imalgène 1000, Merial, France) and 0.1% acepromazine (Vetranquil 1%,) in saline, administered i.p. at 1.5 ml/kg. Mice were anesthetized with a mixture of 0.5% ketamine and 0.1% xylazine, under the volume of 15 ml/kg.
(§11) Animals were mounted in a stereotaxic and implanted with unilateral stainless steel cannula guides (23-gauge, 7 mm long) above the lateral ventricle, according to the coordinates from the atlas of rats and mice. Cannulas were secured to the skull with stainless steel screws and dental cement.
Animals were used for experiments after a 7-day postrecovery period. Each animal was handled daily for 3 days before the experiments and on the day before each experiment, cannula function was confirmed by gravity flow of isotonic saline. […]
(§12) The test consisted of two trials, separated by a 6-h intertrial interval. […] The time spent in each arm of the maze was recorded manually every minute. […]

Male Sprague-Dawley rats = experiment: Two-trial memory task (spatial recognition) in a Y-maze after ICV administration, rats; type: in vivo; settings: ICV immediately after acquisition, 6-h intertrial interval, Newman-Keuls P<0.05
Protocol: as §9, §10, §11
Animals were used for experiments after a 7-day postrecovery period. Each animal was handled daily for 3 days before the experiments and on the day before each experiment, cannula function was confirmed by gravity flow of isotonic saline.
PREGS was obtained from Steraloïds (Newport, RI, Etats-Unis); the steroid enantiomers ent-SPREG et ent-SDHEA were synthesized as previously described (Nilsson et al., 1998, op. cit.). All compounds were dissolved in […] (vehicle)
PREGS was administered iCV at doses of 0 (vehicle), 0.05, 0.25, 0.5, 2.5, 5.0 and 12.5 nmol in rats and of 0 (vehicle), 0.05, 0.25, 0.5, 2.5, 5.0 and 12.5 nmol mice
ent-PREGS was injected ICV at doses of 0 (vehicle), 0.025, 0.05, 0.25, 0.5 nmol in rats and 0 (vehicle), 0.025, 0.05, 0.25, 0.5 and 2.5 nmol in mice.
ent-SDHEA was administered iCV at doses of 0; 0,25; 0,25 nmol in rats.
Drug and control-vehicle solutions were injected unilaterally through the cannula guide. […]
as §12

[6] = rat liver versus brain microsomes, 8 µg steroid, 200 µg protein

Row | Structure (SMILES) | recognition performance of AP5-treated group versus vehicle-control (NMDA receptor [1]; AP5 alone 2 nmol ICV, P > 0.05) | recognition performance of AP5-treated group versus vehicle-control (NMDA receptor [2]; AP5 alone 10 nmol ICV, P > 0.05) | formation of DHEA (metabolism by sulfatase) (steroid sulfatase [3]) | formation of DHEA (metabolism by sulfatase) (steroid sulfatase [4]) | levels of DHEA in the liver relative to the brain (steroid sulfatase [4]; [6]) [times] | memory performances when coadministered with AP5 compared to the group treated with the steroid alone (NMDA receptor [1]) | recognition performances of steroid alone compared with vehicle-controls (NMDA receptor [1]) | brain content of PREG compared with saline-injected control rats (steroid sulfatase [5]) | memory performances when coadministered with AP5 compared to the group treated with the steroid alone (NMDA receptor [2]) | recognition performances of steroid alone compared with vehicle-controls (NMDA receptor [2]) | dose at which % time spent in the novel arm / memory performance was significantly increased relative to vehicle-control (Swiss mice) [nmol] | formation of PREG (metabolism by sulfatase) (steroid sulfatase [3]) | dose at which % time spent in the novel arm / memory performance was significantly increased relative to vehicle-control (Male Sprague-Dawley rats) | formation of PREG (metabolism by sulfatase) (steroid sulfatase [4]) | levels of PREG in the liver relative to the brain (steroid sulfatase [4]; [6]) [times]
1 | NC(CCCP(=O)(O)O)C(=O)O (stereo not drawn) [AP5] | did not significantly differ | did not significantly differ | – | – | – | – | – | – | – | – | – | – | – | – | –
2 | C[C@]12CC[C@H](OS(=O)(=O)O)CC1=CC[C@@H]1[C@@H]2CC[C@]2(C)C(=O)CC[C@@H]12 [DHEAS, dehydroepiandrosterone sulfate] | – | – | metabolized into DHEA | metabolized into DHEA | 5 | – | – | – | – | – | – | – | – | – | –
3 | CC(=O)C1CCC2C3CC=C4CC(OS(=O)(=O)O)CCC4(C)C3CCC12C (stereo not drawn) [PREGS, pregnenolone sulfate] | – | – | – | – | – | significantly reduced | significantly increased | signicantly increased | significantly reduced | significantly increased | 5.0 | metabolized into PREG | 0.5 nmol | metabolized into PREG | 4
4 | C[C@@]12CC[C@@H]3[C@H](CC=C4C[C@H](OS(=O)(=O)O)CC[C@]43C)[C@H]1CCC2=O [ent-DHEAS] | – | – | undectectable | undectectable | – | – | – | – | – | – | – | – | 0,025 nmol | – | –
5 | CC(=O)[C@@H]1CC[C@@H]2[C@H]3CC=C4C[C@H](OS(=O)(=O)O)CC[C@@]4(C)[C@@H]3CC[C@]21C [ent-PREGS] | – | – | – | – | – | did not perform differently | significantly increased | did not significantly differ | did not perform differently | significantly increased | 0.5 | undectectable | 0.05 nmol | undectectable | –
